Patent publication EP4603105A1, “PHARMACEUTICAL COMPOSITION CONTAINING CYCLIC COMPOUND HAVING SELECTIVE KRAS INHIBITORY EFFECT AGAINST HRAS AND NRAS” (CHUGAI SEIYAKU KABUSHIKI KAISHA, priority 2022, dated 2024)
Where a SMILES comes first, the peptide text is derived from it. Bridges are numbered along the chain shown (N, C = ends). [ ]: non-standard residue; d: D form. hPhe(3-Cl-4-CF3) = N[C@@H](CCc1ccc(C(F)(F)F)c(Cl)c1)C(=O)O; NPrPhe(4-CF3) = CCCN[C@@H](Cc1ccc(C(F)(F)F)cc1)C(=O)O; NMeGly(cPent) = CN[C@H](C(=O)O)C1CCCC1; Pro(4,4-F2) = O=C(O)[C@@H]1CC(F)(F)CN1; Hyp = O=C(O)[C@@H]1C[C@@H](O)CN1; NMeD = CN[C@@H](CC(=O)O)C(=O)O; NMeL = CN[C@@H](CC(C)C)C(=O)O; Ac5c = NC1(C(=O)O)CCCC1; Ac4c = NC1(C(=O)O)CCC1; NEtG = CCNCC(=O)O; Sar = CNCC(=O)O

How the values were obtained:
[1] = target: GDP-bound NRAS wild-type protein (Homo sapiens, UniProt P01111); assay: Binding to NRAS by surface plasmon resonance (SPR), KD and KD ratio to KRAS; settings: ratio of the KD value with respect to GDP-bound NRAS wild-type protein to the KD value with respect to KRAS
Sequence of GDP-bound NRAS wild-type protein (P01111 whole entry): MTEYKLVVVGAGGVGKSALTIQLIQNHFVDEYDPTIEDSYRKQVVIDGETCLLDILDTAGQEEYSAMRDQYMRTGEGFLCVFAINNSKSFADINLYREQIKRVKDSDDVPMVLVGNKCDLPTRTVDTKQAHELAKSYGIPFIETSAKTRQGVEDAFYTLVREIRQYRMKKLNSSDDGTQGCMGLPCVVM
Summary of the method: (§1)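 Affinity is measured by surface plasmon resonance at 30°C against captured, GDP-loaded RAS carrying a biotinylated Avi tag. Compounds are titrated by single-cycle kinetics, and KD comes from a 1:1 fit.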

HRAS wild-type protein = HRAS wild-type protein (Homo sapiens, UniProt P01112); assay: Binding to HRAS by surface plasmon resonance (SPR), KD and KD ratio to KRAS; settings: ratio of the KD value with respect to HRAS wild-type protein to the KD value with respect to KRAS
Sequence of HRAS wild-type protein (P01112 whole entry): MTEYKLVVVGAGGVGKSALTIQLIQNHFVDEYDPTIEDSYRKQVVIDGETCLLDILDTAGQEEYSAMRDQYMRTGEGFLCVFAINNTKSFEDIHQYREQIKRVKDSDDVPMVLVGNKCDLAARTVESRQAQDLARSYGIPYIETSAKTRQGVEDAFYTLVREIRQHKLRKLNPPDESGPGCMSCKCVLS
Summary of the method: as §1

[2] = tested on: human lung cancer strain NCI-H441; format: cell-based
Summary of the method: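 Readout: […] after the ATP-based reagent. Compound: serial dilutions in dimethyl sulfoxide.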

Compound | IC50 [2] | NRAS /KRAS [1] | HRAS /KRAS (HRAS wild-type protein)
CCCN1C(=O)CN(C)C(=O)CN(C)C(=O)[C@H]([C@@H](C)CC)NC(=O)[C@H](CC(C)C)N(C)C(=O)C[C@@H](C(=O)N(C)C)N(C)C(=O)[C@H](C2CCCC2)N(C)C(=O)C2(CCC2)NC(=O)[C@@H]2CC(F)(F)CN2C(=O)[C@H](CCc2ccc(C(F)(F)F)c(Cl)c2)NC(=O)CN(C)C(=O)[C@@H]1Cc1ccc(C(F)(F)F)cc1 [PP0414] ([NMeL]I[Sar][Sar][NPrPhe(4-CF3)][Sar][hPhe(3-Cl-4-CF3)][Pro(4,4-F2)][Ac4c][NMeGly(cPent)][NMeD]-NMe2; lactam N-11) | 1.9 nM | B (a compound having 3 or more and less than 10 is denoted as B) | C (A compound having a KD ratio of 0.1 or more and less than 3 is denoted as C)
CCCN1C(=O)CN(C)C(=O)CN(C)C(=O)[C@H]([C@@H](C)CC)NC(=O)[C@H](CC(C)C)N(C)C(=O)C[C@@H](C(=O)N(C)C)N(C)C(=O)[C@H](C2CCCC2)N(C)C(=O)C2(CCCC2)NC(=O)[C@@H]2C[C@@H](OCC)CN2C(=O)[C@H](CCc2ccc(C(F)(F)F)c(Cl)c2)NC(=O)CN(C)C(=O)[C@@H]1Cc1ccc(C(F)(F)F)cc1 [PP0415] ([NMeL]I[Sar][Sar][NPrPhe(4-CF3)][Sar][hPhe(3-Cl-4-CF3)][Hyp](Et)[Ac5c][NMeGly(cPent)][NMeD]-NMe2; lactam N-11) | 1.9 nM | B (a compound having 3 or more and less than 10 is denoted as B) | B (a compound having 3 or more and less than 10 is denoted as B)
CCCN1C(=O)CN(C)C(=O)CNC(=O)[C@H]([C@@H](C)CC)NC(=O)[C@H](CC(C)C)N(C)C(=O)C[C@@H](C(=O)N(C)C)N(C)C(=O)[C@H](C2CCCC2)N(C)C(=O)C2(CCC2)NC(=O)[C@@H]2CCCN2C(=O)[C@H](CCc2ccc(C(F)(F)F)c(Cl)c2)NC(=O)CN(C)C(=O)[C@@H]1Cc1ccc(C(F)(F)F)cc1 [PP0418] ([NMeL]IG[Sar][NPrPhe(4-CF3)][Sar][hPhe(3-Cl-4-CF3)]P[Ac4c][NMeGly(cPent)][NMeD]-NMe2; lactam N-11) | 4.6 nM | B (a compound having 3 or more and less than 10 is denoted as B) | C (A compound having a KD ratio of 0.1 or more and less than 3 is denoted as C)
CCCN1C(=O)CN(C)C(=O)CNC(=O)[C@H]([C@@H](C)CC)NC(=O)[C@H](CC(C)C)N(C)C(=O)C[C@@H](C(=O)N(C)C)N(C)C(=O)[C@H](C2CCCC2)N(C)C(=O)C2(CCCC2)NC(=O)[C@@H]2CC(F)(F)CN2C(=O)[C@H](CCc2ccc(C(F)(F)F)c(Cl)c2)NC(=O)CN(C)C(=O)[C@@H]1Cc1ccc(C(F)(F)F)cc1 [PP0419] ([NMeL]IG[Sar][NPrPhe(4-CF3)][Sar][hPhe(3-Cl-4-CF3)][Pro(4,4-F2)][Ac5c][NMeGly(cPent)][NMeD]-NMe2; lactam N-11) | 4.2 nM | B (a compound having 3 or more and less than 10 is denoted as B) | C (A compound having a KD ratio of 0.1 or more and less than 3 is denoted as C)
CCCN1C(=O)CN(C)C(=O)CNC(=O)[C@H]([C@@H](C)CC)NC(=O)[C@H](CC(C)C)N(C)C(=O)C[C@@H](C(=O)N(C)C)N(C)C(=O)[C@H](C2CCCC2)N(C)C(=O)C2(CCCC2)NC(=O)[C@@H]2C[C@@H](OCC)CN2C(=O)[C@H](CCc2ccc(C(F)(F)F)c(Cl)c2)NC(=O)CN(C)C(=O)[C@@H]1Cc1ccc(C(F)(F)F)cc1 [PP0421] ([NMeL]IG[Sar][NPrPhe(4-CF3)][Sar][hPhe(3-Cl-4-CF3)][Hyp](Et)[Ac5c][NMeGly(cPent)][NMeD]-NMe2; lactam N-11) | 2 nM | B (a compound having 3 or more and less than 10 is denoted as B) | C (A compound having a KD ratio of 0.1 or more and less than 3 is denoted as C)

The remaining compounds from weak to strong by IC50 [2], led by results:

IC50 [2] | Compound | NRAS /KRAS [1] | HRAS /KRAS (HRAS wild-type protein)
9.5 nM | CCCN1C(=O)CN(C)C(=O)CN(CC)C(=O)[C@H]([C@@H](C)CC)NC(=O)[C@H](CC(C)C)N(C)C(=O)C[C@@H](C(=O)N(C)C)N(C)C(=O)[C@H](C2CCCC2)N(C)C(=O)C2(CCC2)NC(=O)[C@@H]2CCCN2C(=O)[C@H](CCc2ccc(C(F)(F)F)c(Cl)c2)NC(=O)CN(C)C(=O)[C@@H]1Cc1ccc(C(F)(F)F)cc1 [PP0424] ([NMeL]I[NEtG][Sar][NPrPhe(4-CF3)][Sar][hPhe(3-Cl-4-CF3)]P[Ac4c][NMeGly(cPent)][NMeD]-NMe2; lactam N-11) | B (a compound having 3 or more and less than 10 is denoted as B) | C (A compound having a KD ratio of 0.1 or more and less than 3 is denoted as C)
3.9 nM | CCCN1C(=O)CN(C)C(=O)CNC(=O)[C@H]([C@@H](C)CC)NC(=O)[C@H](CC(C)C)N(C)C(=O)C[C@@H](C(=O)N(C)C)N(C)C(=O)[C@H](C2CCCC2)N(C)C(=O)C2(CCCC2)NC(=O)[C@@H]2CCCN2C(=O)[C@H](CCc2ccc(C(F)(F)F)c(Cl)c2)NC(=O)CN(C)C(=O)[C@@H]1Cc1ccc(C(F)(F)F)cc1 [PP0417] ([NMeL]IG[Sar][NPrPhe(4-CF3)][Sar][hPhe(3-Cl-4-CF3)]P[Ac5c][NMeGly(cPent)][NMeD]-NMe2; lactam N-11) | B (a compound having 3 or more and less than 10 is denoted as B) | C (A compound having a KD ratio of 0.1 or more and less than 3 is denoted as C)
2 nM | CCCN1C(=O)CN(C)C(=O)CN(C)C(=O)[C@H]([C@@H](C)CC)NC(=O)[C@H](CC(C)C)N(C)C(=O)C[C@@H](C(=O)N(C)C)N(C)C(=O)[C@H](C2CCCC2)N(C)C(=O)C2(CCCC2)NC(=O)[C@@H]2CC(F)(F)CN2C(=O)[C@H](CCc2ccc(C(F)(F)F)c(Cl)c2)NC(=O)CN(C)C(=O)[C@@H]1Cc1ccc(C(F)(F)F)cc1 [PP0413] ([NMeL]I[Sar][Sar][NPrPhe(4-CF3)][Sar][hPhe(3-Cl-4-CF3)][Pro(4,4-F2)][Ac5c][NMeGly(cPent)][NMeD]-NMe2; lactam N-11) | C (A compound having a KD ratio of 0.1 or more and less than 3 is denoted as C) | C (A compound having a KD ratio of 0.1 or more and less than 3 is denoted as C)
1.8 nM | CCCN1C(=O)CN(C)C(=O)CN(C)C(=O)[C@H]([C@@H](C)CC)NC(=O)[C@H](CC(C)C)N(C)C(=O)C[C@@H](C(=O)N(C)C)N(C)C(=O)[C@H](C2CCCC2)N(C)C(=O)C2(CCC2)NC(=O)[C@@H]2CCCN2C(=O)[C@H](CCc2ccc(C(F)(F)F)c(Cl)c2)NC(=O)CN(C)C(=O)[C@@H]1Cc1ccc(C(F)(F)F)cc1 [PP0412] ([NMeL]I[Sar][Sar][NPrPhe(4-CF3)][Sar][hPhe(3-Cl-4-CF3)]P[Ac4c][NMeGly(cPent)][NMeD]-NMe2; lactam N-11) | B (a compound having 3 or more and less than 10 is denoted as B) | C (A compound having a KD ratio of 0.1 or more and less than 3 is denoted as C)
1.6 nM | CCCN1C(=O)CN(C)C(=O)CNC(=O)[C@H]([C@@H](C)CC)NC(=O)[C@H](CC(C)C)N(C)C(=O)C[C@@H](C(=O)N(C)C)N(C)C(=O)[C@H](C2CCCC2)N(C)C(=O)C2(CCC2)NC(=O)[C@@H]2C[C@@H](OCC)CN2C(=O)[C@H](CCc2ccc(C(F)(F)F)c(Cl)c2)NC(=O)CN(C)C(=O)[C@@H]1Cc1ccc(C(F)(F)F)cc1 [PP0422] ([NMeL]IG[Sar][NPrPhe(4-CF3)][Sar][hPhe(3-Cl-4-CF3)][Hyp](Et)[Ac4c][NMeGly(cPent)][NMeD]-NMe2; lactam N-11) | B (a compound having 3 or more and less than 10 is denoted as B) | B (a compound having 3 or more and less than 10 is denoted as B)
1.2 nM | CCCN1C(=O)CN(C)C(=O)CNC(=O)[C@H]([C@@H](C)CC)NC(=O)[C@H](CC(C)C)N(C)C(=O)C[C@@H](C(=O)N(C)C)N(C)C(=O)[C@H](C2CCCC2)N(C)C(=O)C2(CCC2)NC(=O)[C@@H]2CC(F)(F)CN2C(=O)[C@H](CCc2ccc(C(F)(F)F)c(Cl)c2)NC(=O)CN(C)C(=O)[C@@H]1Cc1ccc(C(F)(F)F)cc1 [PP0420] ([NMeL]IG[Sar][NPrPhe(4-CF3)][Sar][hPhe(3-Cl-4-CF3)][Pro(4,4-F2)][Ac4c][NMeGly(cPent)][NMeD]-NMe2; lactam N-11) | B (a compound having 3 or more and less than 10 is denoted as B) | C (A compound having a KD ratio of 0.1 or more and less than 3 is denoted as C)
1.1 nM | CCCN1C(=O)CN(C)C(=O)CN(C)C(=O)[C@H]([C@@H](C)CC)NC(=O)[C@H](CC(C)C)N(C)C(=O)C[C@@H](C(=O)N(C)C)N(C)C(=O)[C@H](C2CCCC2)N(C)C(=O)C2(CCC2)NC(=O)[C@@H]2C[C@@H](OCC)CN2C(=O)[C@H](CCc2ccc(C(F)(F)F)c(Cl)c2)NC(=O)CN(C)C(=O)[C@@H]1Cc1ccc(C(F)(F)F)cc1 [PP0416] ([NMeL]I[Sar][Sar][NPrPhe(4-CF3)][Sar][hPhe(3-Cl-4-CF3)][Hyp](Et)[Ac4c][NMeGly(cPent)][NMeD]-NMe2; lactam N-11) | B (a compound having 3 or more and less than 10 is denoted as B) | C (A compound having a KD ratio of 0.1 or more and less than 3 is denoted as C)
